Reference: PubChem BioAssay AID2305 (GlaxoSmithKline (GSK), 2010)
pIC50: −log10 of the molar value. “And” between values parts separate entries of the source, which are not always exact repeats. Equal entries are not always repeated.

Each compound was assayed on P. falciparum 3D7 growth, pLDH absorbance (assay: blood-stage malaria parasite growth potency – strain 3D7, dose response (AID 2305)).

| Structure (SMILES) | pIC50 |
| --- | --- |
| O=C(Cn1cnc2c(nnn2Cc2ccccc2F)c1=O)Nc1ccc2c(c1)OCCO2 | 6.02 |
| O=c1cc(NCCCNCc2cc3ccccc3s2)[nH]c2ccccc12 | 5.90 |
| CN(C)CCN(C)Cc1ccc(-c2cccc(NC(=O)c3ccc(Cl)cc3)c2)cc1 | 6.25 |
| Cc1ccnc2nc(C(=O)Nc3cc(Cl)ccc3N3CCOCC3)nn12 | 5.91 |
| CC[C@H](C)CNC(=O)c1cncc(-c2cccc(CNCCCc3ccccc3)c2)c1 | 5.93 |
| CN(C)CCOc1cc(NC(=O)Nc2ccc3c(c2)CCCC3=O)ccc1I | 6.03 |
| Cn1c2ccccc2c2c3ccccc3c(CNC(CO)(CO)CO)cc21 | 6.28 |
| CS(=O)(=O)NCCCNCc1cccc(-c2ccc(-c3nc4ccc(C(F)(F)F)cc4[nH]3)cc2)c1 | 6.00 |
| CN(C)c1ccc(-c2csc(C(=O)NC3CCN(Cc4ccc(C(C)(C)C)cc4)C3)c2)cc1 (stereo unspecified) | 6.02 |
| CCCCCc1cc(O)c2c(c1)OC(C)(C)C=C2C1=CCN(Cc2ccsc2)CC1 | 6.02 |
| Fc1ccc2nc(-c3ccc(-c4ccc(CNCC5CCCO5)cc4)s3)[nH]c2c1 (stereo unspecified) | 6.22 |
| Cn1cccc1C(=O)C(=O)Nc1ccc(-c2ccc(-c3nc4ccc(F)cc4[nH]3)cc2)cc1 | 6.08 |
| NC(=O)c1ccsc1NC(=O)CNC(c1ccc(F)cc1)c1cccs1 (stereo unspecified) | 6.02 |
| COc1ccc(-c2cccc(NC(=O)c3ccc(Cl)cc3)c2)cc1CNC(C)C | 6.16 |
| O=C(Nc1ccc(OC2CCN(Cc3ccc(F)cc3)CC2)c(Cl)c1)c1ccc(F)cc1 | 6.72 |
| CC(=NNC(=S)Nc1ccccc1Cl)c1ccccn1 | 7.10 |
| CCn1c(CN2CCC(C)CC2)nc2cc(NC(=O)c3cccs3)ccc21 | 6.25 |
| CCOCCCNc1ncc(-c2ccsc2)c(-c2nc(C)cs2)n1 | 6.57 |
| Cc1cccc2[nH]c(-c3cccc(-c4ccc(CN5CCN(CCO)CC5)cc4)c3)nc12 | 6.09 |
| O=[N+]([O-])c1nc(Br)n(Cc2ccc(Cl)cc2)n1 | 6.44 |
| Cc1cccc2c3c([nH]c12)C1(CCN(Cc2ccccc2)CC1)NC(C(=O)NCc1ccccc1)C3 (stereo unspecified) | 5.86 |
| CCc1ccc(CN2CCC(CN(c3ccc(N4CCOCC4)c(F)c3)S(=O)(=O)c3ccc(C(C)(C)CC)cc3)CC2)cc1 | 6.15 |
| CCCNCc1c(O)ccc2c(CNCCC)c(O)ccc12 | 6.22 |
| Cc1cc2ncn(-c3nccc(NCc4ccc(F)cc4)n3)c2cc1C | 6.05 |
| CNCCNCc1cccc(-c2cccc(-c3nc4ccc(F)cc4[nH]3)c2)c1 | 6.17 |
| O=C(/C=C/c1ccc(Cl)c(Cl)c1)NCCCCCN1[C@@H]2CC[C@H]1CC(c1c[nH]c3ccc(O)cc13)C2 (stereo partly specified) | 6.06 and 6.00 |

| Structure (SMILES) | pIC50 |
| --- | --- |
| CCc1ccc(C2CCN(CCCCNC(=O)c3ccc(-c4ccc(Cl)cc4)cc3)CC2)c(O)c1 | 6.05 |
| Cc1cc(CNC(c2ccccc2)C2CCC2)cc(C)c1O (stereo unspecified) | 6.05 |
| COC(=O)c1c(C#N)c(OC)cc(O)c1CSC[C@@H](CN1CCCCC1)Nc1nc(-c2ccc([N+](=O)[O-])cc2)cs1 | 5.90 |
| CC(=O)c1c[nH]c(C(=O)Nc2ccc(-c3cn4ccccc4n3)cc2)c1 | 6.05 |
| CN1CCC(c2c[nH]c3ccc(NC(=O)Nc4ccc(-c5ccncc5)cc4Cl)cc23)CC1 | 6.08 |
| O=C(Nc1cccc(-c2nn3ccccc3c2-c2ccnc(Nc3cccc(-c4cnco4)c3)n2)c1)C1CCCCC1 | 6.59 |
| O=C(c1cccc(-c2noc(C(F)(F)F)n2)c1)N1CCN(c2nsc3ccccc23)CC1 | 6.85 |
| Oc1ccccc1CNCc1ccc(-c2cnc(N3CCCC(c4ccccc4)C3)nc2)cc1 (stereo unspecified) | 6.16 |
| COc1cccc2c(NN=Cc3cccc([N+](=O)[O-])c3)ccnc12 | 6.12 |
| COc1ccc(CCNC(=O)c2cc3c(=O)n4cccc(C)c4nc3n(C)c2=N)cc1 | 6.12 |
| NS(=O)(=O)c1ccc(CNc2ccc3ncc(-c4ccc(Cl)cc4)n3n2)cc1 | 6.55 |
| CC(C)COc1ccc(C(O)C(CN2CCCCC2)c2ccccc2)cc1 (stereo unspecified) | 6.04 |
| CC1(C)N=C(N)N=C(N)N1c1ccc(Oc2ccccc2)cc1 | 6.47 |
| OCC1CCN(Cc2cccc(-c3ccc(-c4nc5ccc(F)cc5[nH]4)cc3)c2)CC1 | 6.14 |
| CC1(C)C[C@@H]2C[C@@](C)(CN2C(=O)c2cc(C(C)(C)C)nn2Cc2ccccc2)C1 | 5.96 |
| CC(O)c1cccc(-c2ccc(Nc3ccnc4cc(-c5nccs5)ccc34)cc2)c1 (stereo unspecified) | 6.00 |
| c1ccc(COc2ccc(COc3ccc(Cn4ccnc4)cc3)cc2)cc1 | 6.02 |
| Nc1ccc(-c2nc3ccc(Cc4ccc5nc(-c6ccc(N)cc6)[nH]c5c4)cc3[nH]2)cc1 | 6.29 |
| COc1cc(Br)ccc1N1CCN(CCCCNC(=O)c2ccc(NC(=O)c3ccc(Cl)cc3)cc2)CC1 | 6.12 |
| O=C(N[C@@H](Cc1ccccc1)C(=O)NC1CCCCCC1)c1ccc(O)c(-c2ccc(Cl)c(Cl)c2)c1 | 6.48 |
| CC[C@H]1CN2CC[C@@H]1C[C@H]2[C@H](O)c1cc(N2CCC(C)CC2)nc2ccc(OC)cc12 | 6.77 |
| COCCNCc1ccc(-c2cccc(CN(C(=O)CCC3CCCC3)C3CCN(Cc4ccccc4)CC3)c2)cc1 | 6.03 |
| Cn1ncc2c3c(CCN4CCC(NCc5cc6c(cn5)OCCO6)CC4)c(Cl)cnc3ccc21 | 6.11 |
| O=C(Nc1cccc(CN2CCCN(Cc3ccc(F)cc3)CC2)c1)c1cc2ccccc2s1 | 6.10 |
| COc1c(C2CCN(CCCCNC(=O)c3ccc(-c4ccc(Cl)cc4)c(O)c3)CC2)ccc2c1CCCC2 | 6.64 |
